Among the data in PubChem BioAssay (NCI) are TGI and GI50 values, retold here.

SMILES strings stand for the structures. Where “and” joins values, the source holds several entries; their conditions need not be identical. Identical values can stand only once.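 Test compounds were applied to cells in 96-well plates for 48 hours at 5 doses. GI50 marks 50% less growth. TGI denotes the concentration required for complete inhibition of growth.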

What all share (assay): NCI tumour cell line growth inhibition, 48 h
The subject of experiment [1] is SK-MEL-2 melanoma.
The test system of experiment [2] is KM12 colon.
Experiment [3] relates to SK-MEL-28 melanoma.
Experiment [4] deals with HCT-15 colon.
Experiment [5] relates to HCT-116 colon.
In experiment [6] the test system is U251 CNS.
Experiment [7] relates to CCRF-CEM leukemia.
The subject of experiment [8] is EKVX NSCLC.
Experiment [9] relates to SN12C renal.

As to `CCOC(=O)N1C(c2ccccc2)C=CC(c2ccccc2)N1C(=O)OCC` (configuration not stated), the TGI in experiment [1], in [2], in [3], in [4], in experiment [5] and in experiment [6] was greater than 100 µM in each case. Further, the TGI in [7], in experiment [8] and in experiment [9] was greater than 100 µM each time.

In the case of `COc1cc(/C=C\c2ccc(Br)cc2)cc(OC)c1OC`, the TGI in [1] was greater than 100 µM; in [2], greater than 100 µM; in experiment [4] it was 34.7 µM; in experiment [5] it was greater than 100 µM; in experiment [6], 0.012 µM; in experiment [7], 13.8 µM. Further, the TGI in experiment [8] and in experiment [9] was greater than 100 µM each time.

For the compound `COc1ccc(-c2ccc(-c3ccc(C(=N)N)cn3)o2)cc1Cl`, the GI50 in [1] is 2.12 µM; in [3] it was 1.69 µM; in experiment [4], 1.73 µM; in experiment [6], 1.79 µM; in experiment [7], 1.42 µM; in experiment [8], 2 µM. The GI50 in [9] was 1.77 µM. Also, the TGI in experiment [1] is 3.81 µM; in experiment [3] it was 3.22 µM; in experiment [4] it was 3.38 µM; in [6], 3.53 µM; in [7], 3.78 µM; in experiment [8], 4.26 µM. In [9], this compound showed a TGI of 3.45 µM.

Consider `C=C1CCCC2[C@](C)(CC3=C(O)C(=O)C=C(OC)C3=O)[C@@H](C)CC[C@]12C` (some centres not stated), for which the TGI in experiment [1] was 12.5 µM; in [2] it was 17.4 µM; in experiment [3], greater than 100 µM; in experiment [4], 49.6 µM; in experiment [5], 17.7 µM; in [6], greater than 100 µM. Further, the results for the TGI in [7], in [8] and in experiment [9] were 14.6 µM, greater than 100 µM and greater than 100 µM, respectively.

As to `O=C(N/C(=C\c1ccc(/C=C(\NC(=O)c2ccccc2)c2nc3ccccc3s2)cc1)c1nc2ccccc2s1)c1ccccc1`, the TGI in experiment [1] was 19.2 µM; in [2] it was 22.6 µM; in experiment [3], 24.2 µM; in experiment [4], 16 µM; in experiment [5] it was 30.9 µM; in experiment [6] it was 6.2 µM. Moreover, the TGI in experiment [7] turned out to be 5.28 µM; in experiment [8], 14.5 µM; in [9], 12.6 µM.

With `N#Cc1ccc(Oc2cccc(Oc3ccccc3)c2)cc1C#N`, the TGI in experiment [1], in experiment [2], in experiment [3], in [5], in experiment [6] and in [7] was greater than 100 µM throughout. The TGI in experiment [8] and in experiment [9] was greater than 100 µM each time. In addition, the GI50 in experiment [2] and in experiment [9] was greater than 100 µM each time.

`CC1(C(=O)O)CCOc2ccccc21` (configuration not stated): the TGI in [3], in experiment [4], in [5], in experiment [7], in experiment [8] and in experiment [9] was greater than 100 µM in each case.

Turning to `COC12CCC(C(C(=O)c3ccccc3)=C1C(=O)c1ccccc1)C(O)C2` (configuration not stated), the TGI in experiment [1], in experiment [2], in [3], in experiment [4], in experiment [5] and in experiment [7] was greater than 100 µM throughout. Moreover, the TGI in experiment [8] and in [9] was greater than 100 µM in each case.

On to `COc1nc2c(nc(N)n2C2OCC(O)C(O)C2O)c(=O)n1C` (configuration not stated), for which the TGI in experiment [2], in [3], in experiment [5], in [6], in [7] and in experiment [8] was greater than 100 µM in each case. This compound gave a TGI in [9] greater than 100 µM.

On to `O=C1C(=O)N(c2nccs2)C(=O)C(=O)C1c1nc2ccccc2s1`, for which the TGI in experiment [1], in experiment [2], in experiment [3], in [4], in [5] and in experiment [6] was greater than 100 µM throughout. For the same compound, the TGI in [8] and in [9] was greater than 100 µM each time.

For `CC(=O)[O-].[Zn].c1ccc(/C(=N\Nc2ccccn2)c2ccccn2)cc1`, the TGI in experiment [1] is 10.6 µM; in experiment [4], 11.6 µM; in [5], 1.26 µM; in [6], 1.88 µM; in [7], 0.22 µM and 1.22 µM; in experiment [8] it was 2.84 µM. Besides, the TGI in [9] turned out to be 10.9 µM. The GI50 in experiment [6] was 0.482 µM; in [8], 0.0465 µM; in [9] it was 0.363 µM.

For `CCn1c(=O)c2ccccc2n2c(=O)c3cc4ccccc4cc3nc12`, the TGI in experiment [1], in experiment [2], in [4], in experiment [5], in experiment [6] and in experiment [7] was greater than 100 µM throughout. Moreover, the TGI in experiment [8] and in [9] was greater than 100 µM each time.

On to `CCOC(=O)C1=C(Nc2ccc(Br)cc2)OC/C1=N\NC(=O)c1ccccc1O`, for which the TGI was greater than 100 µM in experiment [1]; greater than 100 µM in experiment [2]; greater than 100 µM in experiment [3]; greater than 65.3 µM in [4]; greater than 62 µM in [5]; greater than 100 µM in experiment [6]. Further, the values for the TGI in experiment [7], in experiment [8] and in [9] were 34.3 µM, greater than 93.9 µM and greater than 100 µM, respectively.

As for `S=c1sc2cscc2s1`, the TGI in [1] was greater than 100 µM; in [2], 33.3 µM; in experiment [3] it was 41.1 µM; in experiment [4] it was greater than 100 µM; in experiment [5], 37.7 µM; in experiment [6], greater than 100 µM. Besides, the TGI in experiment [7] is 78 µM; in experiment [8], 35.5 µM; in experiment [9], greater than 100 µM.

`Cc1ccccc1C(=O)Oc1ccc(OCc2ccccc2)cc1`: the TGI in experiment [2], in [3], in experiment [4], in [5], in [6] and in experiment [7] was greater than 100 µM throughout. Further, the TGI in experiment [8] and in [9] was greater than 100 µM throughout.
